From publication PMC7754465, “Multiparameter Kinetic Analysis for Covalent Fragment Optimization by Using Quantitative Irreversible Tethering (qIT)” (Chembiochem, 2020)
“Also recorded” adds a separate entry of the source.

Molecular target: T1, pCdk2(ES)/cyclin A holoenzyme (Homo sapiens, UniProt P24941, C177A/F80C)
T1 construct: GST (N, cleaved yes); made in house; host or cells: E. coli Tuner(DE3); Cdk2 phosphorylated in vitro with GST-CAK1 (S. cerevisiae)
Experiment: spectrophotometric coupled (LDH/PK) kinase assay after labelling and dialysis
Type: biochemical
Settings: treatment with 0.5 mM acrylamide, then dialysis to remove ligand
Source text: Next we undertook biochemical validation of the electrophile sensitive approach using a spectrophotometric kinase assay. In this experiment the activity of Cdk2 is activated both by phosphorylation and interaction with cyclin A. The catalytic turnover of ATP is coupled to the oxidation of NADH by lactate dehydrogenase (LDH) and pyruvate kinase (PK), which is monitored by absorbance at 340 nm.
H. Intact-protein mass spectrometry
Protein-mass data were obtained on a Waters micromass LC-TOF mass spectrometer in positive ion mode using electrospray ionization. Samples were chromatographed using an Acquity UPLC protein BEH C4 column (2.1 mm × 50 mm, 2.7 µm) with a flow rate of 30 µL/min. The injection volume was 5 µL of protein solution (5 µM) in 30 mM ammonium bicarbonate buffer con-taining 0.5% formic acid and 20% MeOH. The gradient used was 100% mobile phase A (0.1% formic acid in water/MeOH (19:1)) ramping linearly to 90% mobile phase B (0.1% formic acid in MeOH) over 5 minutes. […]
4EK3) and the model was iteratively refined using Phenix.Refine[13] with manual modelling and adjustments carried out in COOT[14]. […] Electron density maps were calculated using FFT[17] and figures were prepared using PyMol (Schrö dinger). […]

Compound	inhibition of kinase activity
C=CC(=O)Nc1ccc(-c2ncccn2)cc1 [S1]	complete irreversible inhbition
C=CC(=O)N1CCCc2cc(C(=O)OC)ccc21 [compound 1]	complete irreversible inhbition; also recorded: complete inhibition
